Measured values taken from patent US20160089545A1, “METHODS AND APPARATUS FOR DELIVERY OF MOLECULES ACROSS LAYERS OF TISSUE” (EP Technologies LLC, priority 2013, published 2016).
Like-named read-outs stand apart in the source and are kept apart here. One block for each compound: values may come before it.

Experimental: In this example, a vertical Franz diffusion apparatus (PermeGear Inc, PA) was used for all transport studies. Human skin samples with intact stratum corneum (SC) from back and thigh region were used, which were split thickness (dermatome 250 μm). The skin was kept at −80° C. until the day of treatment. On the day of treatment the skin was thawed to room temperature and kept in a humidified box for 1 hour. The skin was washed with water and pat-dried with paper towels. The skin was cut in to 1″×1″ pieces and was placed between the donor and receiver compartments with temperature maintained at 37±1° C. using water circulator. Effective surface area for transport studies were kept constant at 1.77 cm^2. The receiver compartment was filled with 10 mL of freshly prepared phosphate buffered saline (PBS) (pH 7.4) and donor compartment with 0.5-1.0 mL of permeant solution. One mL samples were withdrawn from the receiver compartment at pre-determined time points and estimated for propofol using high performance liquid chromatography.
In vitro permeation studies were carried out using the experimental setup described above. Drugs reconstituted in water or buffer at 10 mg/mL concentration in the donor compartment was used for transport studies across the human skin, Permeation studies were carried out for a period of 3-6 h and samples were analyzed for using HPLC technique.
In some experiments, the human skin was treated with non-thermal DBD plasma for periods of time up to about 1 min and the following plasma power source parameters were varied: the frequency (Hz) was varied between about 100 and about 3500 Hz, the voltage was varied from about 11 kV to 20 kV, the pulse duration was varied between about 1 and about 10 μs, the duty cycle was varied between about 1 to about 100%, and the time of treatment ranged from between about 0.5 to about 1 minutes. […] Three different runs were carried out, the first in which the plasma generator was operated with a frequency of 2500 Hz, pulse duration of 1 μs, voltage of 15 kV and 100% duty cycle (which corresponds to setting 7100 in FIG. 10), the second with the plasma generator operated with a frequency of 2500 Hz, pulse duration of 5 μs, voltage of 17 kV and 100% duty cycle (which corresponds to setting 7500 in FIG. 10), and the third with the plasma generator operated with frequency of 3500 Hz, pulse duration of 5 μs, voltage of 19 kV and 100% duty cycle (which corresponds to setting 9500 in FIG. 10). A fourth control run was also carried out in which the skin sample was not subjected to plasma treatment before being contacted with the nicotine-containing test formulation.

Compound: Cn1c(=O)c2c(ncn2C)n(C)c1=O [caffeine]
factor of enhancement of transdermal delivery as compared with the control (human, 4 h, 10 mg/mL, pH 7.4): approximately 7

factor of enhancement of transdermal delivery (human, 4 h, 10 mg/mL, pH 7.4): approximately 2
factor of enhancement of transdermal delivery (human, 4 h, pH 7.4): about 4
Compound: O=C(O)Cc1ccccc1Nc1c(Cl)cccc1Cl [diclofenac sodium]

Compound: CN1CCCC1c1cccnc1 (stereo not shown) [nicotine]
factor of enhancement of transdermal delivery as compared with the control (3 hour permeation period, 3500 Hz, pulse duration 5 μs, 19 kV, 100% duty cycle (setting 9500)): approximately 33
